“And” between values parts separate entries of the source, which are not always exact repeats. Equal values may be shown once. Results filed as inconclusive are left out.
System: BDF1 mice, B16 melanoma s.c., survival/tumor T/C
Assay: NCI In Vivo Anticancer Drug Screen. Data for tumor model B16 Melanoma (subcutaneous) in B6D2F1 (BDF1) mice
Method: The antitumor activity of compounds was measured in mice bearing transplantable tumors. Survival or tumor size were measured and the results are expressed as the measurement made in the treated group (T) divided by the measurement made in the vehicle treated control group (C). The tumor model used in this assay is B16 Melanoma (subcutaneous) in B6D2F1 (BDF1) mice

[1] = endpoint: median survival time, dose: 0.5 mg/kg/injection, schedule: Q01DX009 (ip), vehicle: saline with Tween-80, higher = longer survival
[2] = endpoint: median survival time, dose: 0.5 mg/kg/injection, schedule: Q01DX009 (ip), vehicle: saline, higher = longer survival
[3] = endpoint: median survival time, dose: 1.0 mg/kg/injection, schedule: Q01DX009 (ip), vehicle: saline with Tween-80, higher = longer survival
[4] = endpoint: median survival time, dose: 1.0 mg/kg/injection, schedule: Q01DX009 (ip), vehicle: saline, higher = longer survival
[5] = endpoint: median survival time, dose: 0.12 mg/kg/injection, schedule: Q01DX009 (ip), vehicle: saline, higher = longer survival

O=C1c2ccccc2C(=O)c2c(NCCNCCO)ccc(NCCNCCO)c21 was tested, and the T/C [1] was 106 % of control and 119 % of control, the T/C [2] was 111 % of control and the T/C [3] was 93 % of control and 115 % of control. The T/C [4] was 104 % of control and 110 % of control, the T/C (endpoint: median survival time, dose: 1.0 mg/kg/injection, schedule: Q02DX009 (ip), vehicle: saline, higher = longer survival) was 100 % of control and the T/C (endpoint: median survival time, dose: 2.0 mg/kg/injection, schedule: Q01DX009 (ip), vehicle: saline with Tween-80, higher = longer survival) was 101 % of control and 108 % of control. The T/C (endpoint: median survival time, dose: 2.0 mg/kg/injection, schedule: Q01DX009 (ip), vehicle: saline, higher = longer survival) was 100 % of control and 104 % of control and 107 % of control, the T/C (endpoint: median survival time, dose: 4.0 mg/kg/injection, schedule: Q01DX009 (ip), vehicle: saline, higher = longer survival) was 92 % of control and the T/C (endpoint: median survival time, dose: 4.0 mg/kg/injection, schedule: Q02DX009 (ip), vehicle: Klucel (hydroxypropylcellulose) (HPC), higher = longer survival) was 94 % of control. For the same compound, the T/C (endpoint: median survival time, dose: 4.0 mg/kg/injection, schedule: Q02DX009 (ip), vehicle: saline, higher = longer survival) was 154 % of control, the T/C (endpoint: median survival time, dose: 8.0 mg/kg/injection, schedule: Q01DX009 (ip), vehicle: Klucel (hydroxypropylcellulose) (HPC), higher = longer survival) was 104 % of control and the T/C (endpoint: median survival time, dose: 8.0 mg/kg/injection, schedule: Q01DX009 (ip), vehicle: saline, higher = longer survival) was 107 % of control. For the same compound, the T/C (endpoint: median survival time, dose: 8.0 mg/kg/injection, schedule: Q02DX009 (ip), vehicle: Klucel (hydroxypropylcellulose) (HPC), higher = longer survival) was 117 % of control, the T/C (endpoint: median survival time, dose: 8.0 mg/kg/injection, schedule: Q02DX009 (ip), vehicle: saline, higher = longer survival) was 110 % of control and the T/C (endpoint: median survival time, dose: 8.0 mg/kg/injection, schedule: Q02DX009 (ip), vehicle: water, higher = longer survival) was 107 % of control. The T/C (endpoint: median survival time, dose: 13.0 mg/kg/injection, schedule: Q01DX009 (ip), vehicle: Klucel (hydroxypropylcellulose) (HPC), higher = longer survival) was 104 % of control, the T/C (endpoint: median survival time, dose: 16.0 mg/kg/injection, schedule: Q01DX009 (ip), vehicle: Klucel (hydroxypropylcellulose) (HPC), higher = longer survival) was 152 % of control and the T/C (endpoint: median survival time, dose: 16.0 mg/kg/injection, schedule: Q01DX009 (ip), vehicle: saline, higher = longer survival) was 117 % of control. For the same compound, the T/C (endpoint: median survival time, dose: 16.0 mg/kg/injection, schedule: Q02DX009 (ip), vehicle: Klucel (hydroxypropylcellulose) (HPC), higher = longer survival) was 113 % of control, the T/C (endpoint: median survival time, dose: 16.0 mg/kg/injection, schedule: Q02DX009 (ip), vehicle: water, higher = longer survival) was 95 % of control and 106 % of control and the T/C (endpoint: median survival time, dose: 43.0 mg/kg/injection, schedule: Q04DX003 (ip), vehicle: Klucel (hydroxypropylcellulose) (HPC), higher = longer survival) was 97 % of control. The T/C (endpoint: median survival time, dose: 74.0 mg/kg/injection, schedule: Q01DX001 (ip), vehicle: Klucel (hydroxypropylcellulose) (HPC), higher = longer survival) was 91 % of control, the T/C (endpoint: median tumor weight (est.), dose: 13.0 mg/kg/injection, schedule: Q01DX009 (ip), vehicle: Klucel (hydroxypropylcellulose) (HPC), higher = larger tumour) was 64 % of control and the T/C (endpoint: median tumor weight (est.), dose: 43.0 mg/kg/injection, schedule: Q04DX003 (ip), vehicle: Klucel (hydroxypropylcellulose) (HPC), higher = larger tumour) was 52 % of control.

In the case of O=NN(CCF)C(=O)N[C@H]1CCCC[C@H]1O, the T/C (endpoint: median survival time, dose: 5.18 mg/kg/injection, schedule: Q01DX007 (ip), vehicle: water, higher = longer survival) is reported as 68 % of control, the T/C (endpoint: median survival time, dose: 8.64 mg/kg/injection, schedule: Q01DX007 (ip), vehicle: water, higher = longer survival) is reported as 105 % of control and the T/C (endpoint: median survival time, dose: 14.4 mg/kg/injection, schedule: Q01DX007 (ip), vehicle: water, higher = longer survival) is reported as 121 % of control.

For CO[C@H]1C[C@](C)(O)Cc2cc3c(c(O)c21)C(=O)c1c(O)cc2c(c1C3=O)O[C@@H]1O[C@@]2(C)[C@H](O)[C@@H](N(C)C)[C@@H]1O, the T/C (endpoint: median survival time, dose: 6.25 mg/kg/injection, schedule: Q01DX009 (ip), vehicle: other, higher = longer survival) was 104 % of control and the T/C (endpoint: median survival time, dose: 12.5 mg/kg/injection, schedule: Q01DX009 (ip), vehicle: other, higher = longer survival) was 95 % of control.

In the case of Cn1c(=O)[nH]c2nncnc2c1=O, the T/C (endpoint: median survival time, dose: 0.2 mg/kg/injection, schedule: Q01DX009 (ip), vehicle: water, higher = longer survival) is reported as 103 % of control, the T/C (endpoint: median survival time, dose: 0.4 mg/kg/injection, schedule: Q01DX009 (ip), vehicle: water, higher = longer survival) is reported as 119 % of control and the T/C (endpoint: median survival time, dose: 0.8 mg/kg/injection, schedule: Q01DX009 (ip), vehicle: water, higher = longer survival) is reported as 99 % of control. For the same compound, the T/C (endpoint: median survival time, dose: 3.12 mg/kg/injection, schedule: Q01DX009 (ip), vehicle: water, higher = longer survival) was 98 % of control and 103 % of control, the T/C (endpoint: median survival time, dose: 6.25 mg/kg/injection, schedule: Q01DX009 (ip), vehicle: water, higher = longer survival) was 117 % of control and the T/C (endpoint: median survival time, dose: 12.5 mg/kg/injection, schedule: Q01DX009 (ip), vehicle: water, higher = longer survival) was 96 % of control and 99 % of control. For the same compound, the T/C (endpoint: median survival time, dose: 25.0 mg/kg/injection, schedule: Q01DX009 (ip), vehicle: water, higher = longer survival) was 114 % of control.

CN(C)CCCN1c2ccccc2Sc2ccc(Cl)cc21 was tested, and the T/C (endpoint: median survival time, dose: 0.06 mg/kg/injection, schedule: Q01DX009 (ip), vehicle: saline, higher = longer survival) was 98 % of control, the T/C [5] was 92 % of control and the T/C [2] was 97 % of control. The T/C [4] was 98 % of control.

In the case of O=NN(CCCl)C(=O)NCCO, the T/C (endpoint: median survival time, dose: 2.59 mg/kg/injection, schedule: Q01DX007 (ip), vehicle: water, higher = longer survival) is reported as 102 % of control and the T/C (endpoint: median survival time, dose: 4.32 mg/kg/injection, schedule: Q01DX007 (ip), vehicle: water, higher = longer survival) is reported as 98 % of control.

With C1CN1c1nc(N2CC2)nc(N2CC2)n1 the T/C [5] was 106 % of control, the T/C [1] was 110 % of control and the T/C (endpoint: median survival time, dose: 0.5 mg/kg/injection, schedule: Q08DX002 (ip), vehicle: saline with Tween-80, higher = longer survival) was 104 % of control. The T/C [3] was 93 % of control, the T/C (endpoint: median survival time, dose: 2.0 mg/kg/injection, schedule: Q08DX002 (ip), vehicle: saline with Tween-80, higher = longer survival) was 179 % of control and the T/C (endpoint: median survival time, dose: 4.0 mg/kg/injection, schedule: Q08DX002 (ip), vehicle: saline with Tween-80, higher = longer survival) was 87 % of control. The T/C (endpoint: median tumor weight (est.), dose: 0.12 mg/kg/injection, schedule: Q01DX009 (ip), vehicle: saline with Tween-80, higher = larger tumour) was 154 % of control, the T/C (endpoint: median tumor weight (est.), dose: 0.25 mg/kg/injection, schedule: Q01DX009 (ip), vehicle: saline with Tween-80, higher = larger tumour) was 95 % of control and the T/C (endpoint: median tumor weight (est.), dose: 0.5 mg/kg/injection, schedule: Q01DX009 (ip), vehicle: saline with Tween-80, higher = larger tumour) was 83 % of control. For the same compound, the T/C (endpoint: median tumor weight (est.), dose: 0.5 mg/kg/injection, schedule: Q08DX002 (ip), vehicle: saline with Tween-80, higher = larger tumour) was 268 % of control, the T/C (endpoint: median tumor weight (est.), dose: 1.0 mg/kg/injection, schedule: Q01DX009 (ip), vehicle: saline, higher = larger tumour) was 34 % of control and the T/C (endpoint: median tumor weight (est.), dose: 1.0 mg/kg/injection, schedule: Q08DX002 (ip), vehicle: saline with Tween-80, higher = larger tumour) was 104 % of control. For the same compound, the T/C (endpoint: median tumor weight (est.), dose: 2.0 mg/kg/injection, schedule: Q08DX002 (ip), vehicle: saline with Tween-80, higher = larger tumour) was 81 % of control, the T/C (endpoint: median tumor weight (est.), dose: 4.0 mg/kg/injection, schedule: Q08DX002 (ip), vehicle: saline with Tween-80, higher = larger tumour) was 19 % of control and the T/C (endpoint: median tumor weight (est.), dose: 4.0 mg/kg/injection, schedule: Q08DX002 (ip), vehicle: saline, higher = larger tumour) was 86 % of control.

In the case of CCOc1ccc2nc(S(N)(=O)=O)sc2c1, the T/C (endpoint: median survival time, dose: 3.75 mg/kg/injection, schedule: Q01DX009 (ip), vehicle: saline, higher = longer survival) is reported as 121 % of control, the T/C (endpoint: median survival time, dose: 7.5 mg/kg/injection, schedule: Q01DX009 (ip), vehicle: saline, higher = longer survival) is reported as 123 % of control and the T/C (endpoint: median survival time, dose: 15.0 mg/kg/injection, schedule: Q01DX009 (ip), vehicle: saline, higher = longer survival) is reported as 121 % of control. For the same compound, the T/C (endpoint: median survival time, dose: 30.0 mg/kg/injection, schedule: Q01DX009 (ip), vehicle: saline, higher = longer survival) was 95 % of control.

Nc1ncn(C2OC(CO)C(O)C2O)c(=O)n1 (stereo not drawn) was tested, and the T/C (endpoint: median survival time, dose: 0.2 mg/kg/injection, schedule: Q01DX009 (ip), vehicle: saline, higher = longer survival) was 100 % of control, the T/C (endpoint: median survival time, dose: 0.4 mg/kg/injection, schedule: Q01DX009 (ip), vehicle: saline, higher = longer survival) was 104 % of control and the T/C [2] was 87 % of control. The T/C (endpoint: median survival time, dose: 0.75 mg/kg/injection, schedule: Q01DX009 (ip), vehicle: Klucel (hydroxypropylcellulose) (HPC), higher = longer survival) was 111 % of control, the T/C (endpoint: median survival time, dose: 0.8 mg/kg/injection, schedule: Q01DX009 (ip), vehicle: saline, higher = longer survival) was 123 % of control and the T/C [4] was 105 % of control. The T/C (endpoint: median survival time, dose: 1.6 mg/kg/injection, schedule: Q01DX009 (ip), vehicle: saline, higher = longer survival) was 106 % of control, the T/C (endpoint: median survival time, dose: 3.2 mg/kg/injection, schedule: Q01DX009 (ip), vehicle: saline, higher = longer survival) was 114 % of control and 116 % of control and the T/C (endpoint: median tumor weight (est.), dose: 0.75 mg/kg/injection, schedule: Q01DX009 (ip), vehicle: saline, higher = larger tumour) was 87 % of control and 96 % of control. The T/C (endpoint: median tumor weight (est.), dose: 1.5 mg/kg/injection, schedule: Q01DX009 (ip), vehicle: saline, higher = larger tumour) was 41 % of control and 48 % of control, the T/C (endpoint: median tumor weight (est.), dose: 3.0 mg/kg/injection, schedule: Q01DX009 (ip), vehicle: saline, higher = larger tumour) was 52 % of control and 57 % of control and the T/C (endpoint: median tumor weight (est.), dose: 6.0 mg/kg/injection, schedule: Q01DX009 (ip), vehicle: saline, higher = larger tumour) was 21 % of control and 26 % of control.

From PubChem BioAssay AID194 (DTP/NCI, 2004)
